The record followed here is US20220402901A1 (Bial - R&D Investments, S.A., priority 2019, published 2022).

Each structure is given as a SMILES string.

The first series deals with T1, Human acid ceramidase (hACR) (Homo sapiens, UniProt Q13510).
T1 construct: expressed in transfected cells; lysates of cells overexpressing acid ceramidase
T1 sequence (Q13510 22-395): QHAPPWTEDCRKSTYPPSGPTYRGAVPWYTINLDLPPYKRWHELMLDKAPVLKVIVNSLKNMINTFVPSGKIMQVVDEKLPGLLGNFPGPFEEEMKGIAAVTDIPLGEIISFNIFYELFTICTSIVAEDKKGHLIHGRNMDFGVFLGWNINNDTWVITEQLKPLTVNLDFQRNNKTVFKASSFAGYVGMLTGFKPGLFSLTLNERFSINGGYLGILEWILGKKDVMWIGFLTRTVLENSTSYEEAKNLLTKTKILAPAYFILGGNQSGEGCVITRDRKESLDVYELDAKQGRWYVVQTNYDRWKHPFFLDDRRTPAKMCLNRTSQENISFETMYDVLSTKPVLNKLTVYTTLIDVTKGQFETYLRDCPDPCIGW
The series is described as follows: Acid ceramidase biochemical fluorescent assay (cell lysates overexpressing acid ceramidase, substrate Rbm14-12). The conditions noted are these: 10 μg lysate protein, 1 hr preincubation at RT, pH 4.5, Rbm14-12 6.3 μM. Here is the method:
The ability of exemplary compounds to inhibit acid ceramidase was measured.
Cell lysates overexpressing acid ceramidase were used as the enzyme source for compound potency determination in a biochemical fluorescent assay. Briefly, compounds were preincubated with 10 μg protein of cell lysates in a dose-response manner for 1 hr at RT in the assay buffer containing 25 mM NaAC and 100 mM NaCl, pH 4.5. The reaction was initiated by the addition of substrate Rbm14-12 at a final concentration of 6.3 μM. The reaction was run at RT for 1 hr before it was stopped by the addition of the stopping buffer containing 20% methanol (v/v), 1 mg/ml NaIO4, 0.1 M glycine, pH 10.6. The samples were incubated with the stopping buffer at RT for 1 hr to allow the fluorescent product to be formed. Finally the plate was read with SpectraMax i3 plate reader (Molecular Devices) at ex360 nm and em446 nm. Data were collected and used to determine the IC50 values of compounds by curve fitting to the four-parameter inhibition equation.
The symbol “A” indicates inhibition of less than 0.2 μM; the symbol “B” indicates inhibition in the range of 0.2 μM up to 1 μM; and the symbol “C” indicates inhibition of greater than 1 μM.
As for `C[C@H]1CC(c2ccc3c(c2)oc(=O)n3C)CCN1C(=O)NCCCCc1ccccc1` (mixture of isomers) [Example 20, (2S)-methyl-4-(3-methyl-2-oxo-1,3-benzoxazol-6-yl)-N-(4-phenylbutyl)piperidine-1-carboxamide], the IC50 is below 0.2 µM.
Same read-out and setting: with `Cn1c(=O)oc2cc(C3CCCN3C(=O)NCCCCc3ccccc3)ccc21` (centres unmarked) [Example 44, 2-(3-Methyl-2-oxo-1,3-benzoxazol-6-yl)-N-(4-phenylbutyl)pyrrolidine-1-carboxamide] the figure was above 1 µM; with `Cn1c(=O)oc2cc(C3CCN(C(=O)NCCCCc4ccccc4)CC3)ccc21` [Example 2, 4-(3-Methyl-2-oxo-1,3-benzoxazol-6-yl)-N-(4-phenylbutyl)piperidine-1-carboxamide], above 1 µM.
Same read-out and setting: as for `C[C@@H]1CC(c2ccc3c(c2)oc(=O)n3C)CCN1C(=O)NCCc1ccccc1` (mixture of isomers) [Example 18, (2R)-2-Methyl-4-(3-methyl-2-oxo-1,3-benzoxazol-6-yl)-N-(2-phenylethyl)piperidine-1-carboxamide], the figure is 0.2 to 1 µM; as for `CCOCCNC(=O)N1CCN(c2ccc3c(c2)oc(=O)n3C)CC1(C)C` [Example 55, N-(2-Ethoxyethyl)-2,2-dimethyl-4-(3-methyl-2-oxo-1,3-benzoxazol-6-yl)piperazine-1 carboxamide], above 1 µM; as for `O=C(NCCCCc1ccccc1)N1CCCC(c2ccc3[nH]c(=O)oc3c2)C1` (centres unmarked) [Example 11, 3-(2-Oxo-3H-1,3-benzoxazol-6-yl)-N-(4-phenylbutyl)piperidine-1-carboxamide], above 1 µM.
Molecule `Cn1c(=O)oc2cc(C3CCN(C(=O)NCCC4CC4)CC3)ccc21` [Example 4, N-(2-Cyclopropylethyl)-4-(3-methyl-2-oxo-1,3-benzoxazol-6-yl)piperidine-1-carboxamide] registered an IC50 above 1 µM.
Same read-out and setting: as for `Cn1c(=O)oc2cc(N3C[C@H]4CN(C(=O)NCCCCc5ccccc5)C[C@H]4C3)ccc21` [Example 66, (3aS,6aR)- and (3aR,6aS)-2-(3-Methyl-2-oxo-1,3-benzoxazol-6-yl)-N-(4-phenylbutyl)-1,3,3a,4,6,6a-hexahydropyrrolo[3,4-c]pyrrole-5-carboxamide], the figure is below 0.2 µM; as for `COCCCNC(=O)N1CCC(c2ccc3c(c2)oc(=O)n3C)CC1(C)C` (centres unmarked) [Example 30, N-(3-methoxypropyl)-2,2-dimethyl-4-(3-methyl-2-oxo-1,3-benzoxazol-6-yl)piperidine-1-carboxamide], above 1 µM; as for `CN(C)CCn1c(=O)oc2cc(C3CCN(C(=O)NCCCCc4ccccc4)C(C)(C)C3)ccc21` (centres unmarked) [Example 32, 4-[3-[2-(Dimethylamino)ethyl]-2-oxo-1,3-benzoxazol-6-yl]-2,2-dimethyl-N-(4-phenylbutyl)piperidine-1-carboxamide], below 0.2 µM.
Same read-out and setting: with `Cn1c(=O)oc2cc(N3CCN(C(=O)NCCCCc4ccccc4)C4(CC4)C3)ccc21` [Example 60, 7-(3-Methyl-2-oxo-1,3-benzoxazol-6-yl)-N-(4-phenylbutyl)-4,7-diazaspiro[2.5]octane-4-carboxamide] the figure was above 1 µM; with `Cn1c(=O)oc2cc(N3CCC4(CC3)CN(C(=O)NCCCCc3ccccc3)C4)ccc21` [Example 68, 7-(3-methyl-2-oxo-1,3-benzoxazol-6-yl)-N-(4-phenylbutyl)-2,7-diazaspiro[3.5]nonane-2-carboxamide], above 1 µM.
On the same count and under the same terms, as for `O=C(NCCCCc1ccccc1)N1CCN(c2ccc3[nH]c(=O)oc3c2)CC1` [Example 45, 4-(2-Oxo-3H-1,3-benzoxazol-6-yl)-N-(4-phenylbutyl)piperazine-1-carboxamide], the figure is above 1 µM; as for `COCCCNC(=O)N1CCN(c2ccc3c(c2)oc(=O)n3C)CC1(C)C` [Example 56, N-(3-Methoxypropyl)-2,2-dimethyl-4-(3-methyl-2-oxo-1,3-benzoxazol-6-yl)piperazine-1-carboxamide], above 1 µM; as for `CC1(C)CC(c2ccc3[nH]c(=O)oc3c2)CCN1C(=O)NCCCCc1ccccc1` (centres unmarked) [Example 23, 2,2-Dimethyl-4-(2-oxo-3H-1,3-benzoxazol-6-yl)-N-(4-phenylbutyl)piperidine-1-carboxamide], below 0.2 µM.
Take `CCCCCNC(=O)N1CCCC(c2ccc3c(c2)oc(=O)n3C)C1` (centres unmarked) [Example 13, 3-(3-Methy-2-oxo-1,3-benzoxazol-6-yl)-N-pentyl-piperidine-1-carboxamide]: the IC50 is above 1 µM.
For `Cn1c(=O)oc2cc(N3CC4CCC(C3)N4C(=O)NCCCCc3ccccc3)ccc21` [Example 61, 3-(3-Methyl-2-oxo-1,3-benzoxazol-6-yl)-N-(4-phenylbutyl)-3,8-diazabicyclo[3.2.1]octane-8-carboxamide], the IC50 was above 1 µM.
On the same count and under the same terms, with `O=C(NCCCCc1ccccc1)N1CCCCC1c1ccc2[nH]c(=O)oc2c1` (centres unmarked) [Example 36, 2-(2-Oxo-3H-1,3-benzoxazol-6-yl)-N-(4-phenylbutyl)piperidine-1-carboxamide] the figure was above 1 µM.
Still for that read-out and setting: with `Cn1c(=O)oc2cc(C3CCN(C(=O)NCCCCc4ccccc4)C4(COC4)C3)ccc21` (centres unmarked) [Example 34, 8-(3-Methyl-2-oxo-1,3-benzoxazol-6-yl)-N-(4-phenylbutyl)-2-oxa-5-azaspiro[3.5]nonane-5-carboxamide] the figure was above 1 µM; with `CCOCCNC(=O)N1CCCC(c2ccc3c(c2)oc(=O)n3C)C1` (centres unmarked) [Example 14, N-(2-Ethoxyethyl)-3-(3-methyl-2-oxo-1,3-benzoxazol-6-yl)piperidine-1-carboxamide], above 1 µM.
Still for that read-out and setting: as for `Cn1c(=O)oc2cc(N3CC4(COC4)N(C(=O)NCCCCc4ccccc4)CC3=O)ccc21` [Example 62, 8-(3-Methyl-2-oxo-1,3-benzoxazol-6-yl)-7-oxo-N-(4-phenylbutyl)-2-oxa-5,8-diazaspiro[3.5]nonane-5-carboxamide], the figure is 0.2 to 1 µM.
Take `CC(C)CNC(=O)N1CCC(c2ccc3c(c2)oc(=O)n3C)C[C@H]1C` (mixture of isomers) [Example 19, N-iso-Butyl (2R)-methyl-4-(3-methyl-2-oxo-1,3-benzoxazol-6-yl)piperidine-1-carboxamide]: the IC50 was above 1 µM.
Still for that read-out and setting: as for `O=C(NCCCCc1ccccc1)N1CC2(CCN(c3ccc4[nH]c(=O)oc4c3)CC2)C1` [Example 67, 7-(2-Oxo-3H-1,3-benzoxazol-6-yl)-N-(4-phenylbutyl)-2,7-diazaspiro[3.5]nonane-2-carboxamide], the figure is above 1 µM; as for `C[C@@H]1CC(c2ccc3c(c2)oc(=O)n3C)CCN1C(=O)NCCCCc1ccccc1` (mixture of isomers) [Example 17, (2R)-2-Methyl-4-(3-methyl-2-oxo-1,3-benzoxazol-6-yl)-N-(4-phenylbutyl)piperidine-1-carboxamide], below 0.2 µM; as for `Cn1c(=O)oc2cc(C3CCN(C(=O)NC4CCCCC4)CC3)ccc21` [Example 5, N-Cyclohexyl-4-(3-methyl-2-oxo-1,3-benzoxazol-6-yl)piperidine-1-carboxamide], above 1 µM.
The same measure, in the same setting: as for `Cn1c(=O)oc2cc(C3COCCN3C(=O)NCCCCc3ccccc3)ccc21` (centres unmarked) [Example 38, 3-(3-Methyl-2-oxo-1,3-benzoxazol-6-yl)-N-(4-phenylbutyl)morpholine-4-carboxamide], the figure is above 1 µM; as for `C[C@H]1CN(c2ccc3c(c2)oc(=O)n3C)CCN1C(=O)NCCCCc1ccccc1` [Example 49, (2S)-2-Methyl-4-(3-methyl-2-oxo-1,3-benzoxazol-6-yl)-N-(4-phenylbutyl)piperazine-1-carboxamide], 0.2 to 1 µM.
The same measure, in the same setting: as for `O=C(NCCCCc1ccccc1)N1CCC2(CC1)CN(c1ccc3[nH]c(=O)oc3c1)C2` [Example 69, 2-(2-Oxo-3H-1,3-benzoxazol-6-yl)-N-(4-phenylbutyl)-2,7-diazaspiro[3.5]nonane-7-carboxamide], the figure is above 1 µM; as for `Cn1c(=O)oc2cc(N3CC4(CCN(C(=O)NCCCCc5ccccc5)CC4)C3)ccc21` [Example 70, 2-(3-Methyl-2-oxo-1,3-benzoxazol-6-yl)-N-(4-phenylbutyl)-2,7-diazaspiro[3.5]nonane-7-carboxamide], above 1 µM.
The molecule `Cn1c(=O)oc2cc(C3=CCCN(C(=O)NCCCCc4ccccc4)C3)ccc21` [Example 15, 5-(3-methyl-2-oxo-1,3-benzoxazol-6-yl)-N-(4-phenylbutyl)-3,6-dihydro-2H-pyridine-1-carboxamide] yielded an IC50 of 0.2 to 1 µM.
With `Cn1c(=O)oc2cc(N3CCC4(CCN(C(=O)NCCCCc5ccccc5)CC4)CC3)ccc21` [Example 71, 9-(3-Methyl-2-oxo-1,3-benzoxazol-6-yl)-N-(4-phenylbutyl)-3,9-diazaspiro[5.5]undecane-3-carboxamide], the IC50 is above 1 µM.

Tested on in another series: not listed separately
Nature of the series: Compound solubility in water. It is filed as physicochemical. Conditions: read-out: Solubility in H2O.
As for `C[C@H]1CC(c2ccc3c(c2)oc(=O)n3C)CCN1C(=O)NCCCCc1ccccc1` (mixture of isomers) [Example 20, (2S)-methyl-4-(3-methyl-2-oxo-1,3-benzoxazol-6-yl)-N-(4-phenylbutyl)piperidine-1-carboxamide], the solubility amounted to 10 µM.

As a reminder, the IC50 is the point on the concentration scale where inhibition reaches its midpoint. The solubility is the concentration that dissolves in the medium under given conditions.
